biological target: T1, COX-2 (Homo sapiens, UniProt P35354); assay: Inhibition of COX: arachidonic acid metabolism; type: biochemical; conditions: 25 nmoles compound with 25 nmoles AA, 250 μL, 2 min
T1 construct: purchased Cayman Chemical
T1 sequence (P35354 18-604): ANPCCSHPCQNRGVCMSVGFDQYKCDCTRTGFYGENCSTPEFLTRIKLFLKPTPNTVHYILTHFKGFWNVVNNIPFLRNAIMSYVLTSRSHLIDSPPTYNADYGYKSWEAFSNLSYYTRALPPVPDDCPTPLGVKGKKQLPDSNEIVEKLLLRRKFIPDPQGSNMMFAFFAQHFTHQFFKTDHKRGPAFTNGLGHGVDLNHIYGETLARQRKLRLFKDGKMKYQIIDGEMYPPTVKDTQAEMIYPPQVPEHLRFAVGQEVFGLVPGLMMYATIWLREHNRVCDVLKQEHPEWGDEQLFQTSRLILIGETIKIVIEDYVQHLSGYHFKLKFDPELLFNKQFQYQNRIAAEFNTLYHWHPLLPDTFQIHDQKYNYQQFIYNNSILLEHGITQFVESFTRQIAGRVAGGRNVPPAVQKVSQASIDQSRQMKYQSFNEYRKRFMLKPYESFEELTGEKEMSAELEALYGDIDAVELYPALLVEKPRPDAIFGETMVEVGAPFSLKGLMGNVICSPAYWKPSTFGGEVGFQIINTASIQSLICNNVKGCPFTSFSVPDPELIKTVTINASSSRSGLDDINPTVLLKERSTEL
Method: All compound solutions were made to a concentration of 10 mM in DMSO. Three tests were performed on each compound: hydrolysis, to determine the stability of the compound in assay conditions without the enzyme present; metabolism, to determine the stability of the compound with the enzyme present; and inhibition of arachidonic acid (AA) metabolism.
To test the stability of the compounds in enzyme assay conditions, 25 nmoles of the compound were incubated with 12.5 μl 100 uM hematin in assay buffer (0.1M PH8.0 Tris-HCl, 2 mM phenol, 5 mM EDTA, 0.1% BSA, final volume of 250 μL) for 2 minutes at 25° C. Samples (100 μL) were taken at the start of the assay and after 2 minutes, diluted 1:5 with acetonitrile and centrifuged (20,000 RCF, five minutes, room temperature) to precipitate the proteins. The resulting supernatant was injected onto the HPLC. Calculations for determining the percent compound remaining are described in the following equation: % R=Peak Area(T2)/Peak Area(T0) To determine whether or not the compounds were good substrates for COX enzyme, 25 nmoles of the compound were incubated with 12.5 μl COX enzyme (purchased form Cayman Chemical) and 5 uM hematin in assay buffer (final volume 250 μL). The reaction mixture was treated in the same manner as described above. Concentrations of AA were calculated using external standards. […] Again the reaction mixture was treated in the same manner as described above and the concentrations of AA were calculated using external standards. Percent inhibition was calculated using the following equation: % Inhib.=(AA0-AA2)i/(AA0-AA2)s where (AA0-AA2)i is the amount of arachidonic acid metabolized over 2 minutes with the inhibitor present and (AA0-AA2)s is the amount of arachidonic acid metabolized over 2 minutes when the inhibitor is not present. […] The reaction mixtures were treated as described above and the amount of AA metabolized was calculated. The software package GraphPad Prism was utilized to calculate IC50 and Ki. HPLC Conditions:
Chromatographic separation was achieved using an Ultrasphere ODS Pre-column (4.6×45 mm) from Beckman. Hardware consisted of a Waters Millennium HPLC system with a 20 μL injection loop. The mobile phase consisted of 8.5% o-phosphoric acid:acetonitrile (3:7), run isocratically at a rate of 1 mL/min and detection at 204 nm. The total run time was 8 minutes with AA at 6.0 minutes.

First: O=C(CCC/C=C\C/C=C\C/C=C\C/C=C\CCCCc1ccccc1)NCC1CC1 [Compound A1]
Second: O=C(CCC/C=C\C/C=C\C/C=C\C/C=C\CCc1ccccc1)Nc1ccc(O)cc1 [Compound A3]
The “COX-2 % Inhibition” value of the first is higher: 78.4% for the first, 77.4% for the second.

Compared with COc1cc(CNC(=O)CCC/C=C\C/C=C\C/C=C\C/C=C\CCCCN=[N+]=[N-])ccc1O [Compound A7], COc1cc(CNC(=O)CCC/C=C\C/C=C\C/C=C\C/C=C\CCCCN=C=S)ccc1O [Compound A12] is higher in “COX-2 % Inhibition” value: 42.4% for the first, 46.2% for the second.
